# Structures can show the parent of a compound that is named as a salt.
# Biological target: T1, RIPK2 (Homo sapiens, UniProt O43353)
# T1 construct: Full length FLAG His tagged RIPK2 was purified from a Baculovirus expression system; FLAG (N); 6His (N); made in house; host or cells: Spodoptera frugiperda (Sf9) insect cells, baculovirus
# Test: Fluorescent polarization based binding assay at the ATP binding pocket of RIPK2
# Conditions: full length FLAG His tagged RIPK2; competition with fluorescently labeled ATP competitive ligand (5 nM); mean of a minimum of 2 experiments; read-out: mean pIC50 (RIP2 kinase, fluorescent polarization binding assay) (converted)
# Text: A fluorescent polarization based binding assay was developed to quantitate interaction of novel test compounds at the ATP binding pocket of RIPK2, by competition with a fluorescently labeled ATP competitive ligand. Full length FLAG His tagged RIPK2 was purified from a Baculovirus expression system and was used at a final assay concentration of twice the KDapparent. A fluorescent labeled ligand (5-({[2-({[3-({4-[(5-hydroxy-2-methylphenyl)amino]-2-pyrimidinyl}amino)phenyl]carbonyl}amino)ethyl]amino}carbonyl)-2-(6-hydroxy-3-oxo-3H-xanthen-9-yl)benzoic acid, prepared as described below) was used at a final assay concentration of 5 nM. Both the enzyme and ligand were prepared in solutions in 50 mM HEPES pH7.5, 150 mM NaCl, 10 mM MgCl2, 1 mM DTT, and 1 mM CHAPS. Test compounds were prepared in 100% DMSO and 100 nL was dispensed to individual wells of a multiwell plate. Next, 5 ul RIPK2 was added to the test compounds at twice the final assay concentration, and incubated at room temperature for 10 minutes. Following the incubation, 5 ul of the fluorescent labeled ligand solution, was added to each reaction, at twice the final assay concentration, and incubated at room temperature for at least 10 minutes. Finally, samples were read on an instrument capable of measuring fluorescent polarization. Test compound inhibition was expressed as percent (%) inhibition of internal assay controls.
# For concentration response experiments, normalized data were fit and pIC50s determined using conventional techniques. For example, the following four parameter logistic equation may be used: y=A+(([…]))/(1+(10^x)/(10^C)^D), where: y is the % activity (% inhibition) at a specified compound concentration; A is the minimum % activity; B is the maximum % activity; C=log10(IC50); D=Hill slope; x=log10 (compound concentration [M]); and pIC50=(−C).
# The pIC50s are averaged to determine a mean value, for a minimum of 2 experiments.
# Full-length human RIPK2 (receptor-interacting serine-threonine kinase 2) cDNA was purchased from Invitrogen (Carlsbad, Calif., USA, Clone ID:10H6368, RIPK2-pENTR 221). […]
# T1 sequence (O43353 whole entry): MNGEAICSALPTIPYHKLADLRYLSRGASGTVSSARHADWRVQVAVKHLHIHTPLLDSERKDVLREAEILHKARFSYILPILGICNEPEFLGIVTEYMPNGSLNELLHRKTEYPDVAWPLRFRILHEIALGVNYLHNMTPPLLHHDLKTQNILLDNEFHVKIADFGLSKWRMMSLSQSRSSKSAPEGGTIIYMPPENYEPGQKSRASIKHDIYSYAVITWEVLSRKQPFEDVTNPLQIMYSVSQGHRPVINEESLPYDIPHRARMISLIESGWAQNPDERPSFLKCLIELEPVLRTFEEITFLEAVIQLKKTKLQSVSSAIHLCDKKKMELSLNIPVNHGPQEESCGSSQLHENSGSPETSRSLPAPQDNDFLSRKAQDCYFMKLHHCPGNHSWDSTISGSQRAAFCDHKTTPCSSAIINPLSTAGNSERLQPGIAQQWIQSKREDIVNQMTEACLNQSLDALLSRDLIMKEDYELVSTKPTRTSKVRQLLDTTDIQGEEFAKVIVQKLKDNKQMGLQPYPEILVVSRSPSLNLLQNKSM
row,SMILES,IC50 [nM]
1,"CS(=O)(=O)c1ccc2nccc(Nc3ccc(O)c(F)c3)c2c1 [Example 12, 2-fluoro-4-{[6-(methylsulfonyl)-4-quinolinyl]amino}phenol]",398
2,"CS(=O)(=O)c1ccc2nccc(Nc3n[nH]c4cc(Cl)ccc34)c2c1 [Example 75, N-(6-chloro-1H-indazol-3-yl)-6-(methylsulfonyl)-4-quinolinamine]",126
3,"Nc1ccc(S(=O)(=O)c2ccc3nccc(Nc4ccc5scnc5c4)c3c2)cc1 [Example 106, 6-[(4-aminophenyl)sulfonyl]-N-1,3-benzothiazol-5-yl-4-quinolinamine tetrahydrochloride]",126

# Source: patent publication US20160060222A1, “AMINO-QUINOLINES AS KINASE INHIBITORS” (GlaxoSmithKline Intellectual Property Development Limited, priority 2011, published 2016)
